Test system: multifocal ventricular arrhythmias induced by n-hexane and epinephrine in dogs
Test: protection against multifocal ventricular arrhythmias induced by n-hexane and epinephrine in dogs
Assay type: in vivo
Conditions: dog, intravenous
From the text: [2-(4-Amino-2,6-dibromophenoxy)ethyl]dimethyl-(2-methylallyl)ammonium chloride is employed to alleviate multifocal ventricular arrhythmias induced by administration of n-hexane and epinephrine. In these operations, dogs are anesthetized by intravenous administration of 30 milligrams of pentobarbital sodium per kilogram. Transient ventricular arrhythmias are induced by a modification of the method of Garb and Chenowith, J. Pharmacol. Exp. Ther. 94; 12 (1948) in which the heart is sensitized by intratracheal injection of 0.04 milliliter of n-hexane per kilogram, followed in 15 seconds by rapid intravenous administration of 1-epinephrine bitrate at a dosage rate of 10 micrograms per kilogram. Such procedure produces a transient arrhythmia lasting about 10 seconds. Duration of protection by a test compound is evaluated by repeating the n-hexane and epinephrine challenge periodically and monitoring electrocardiogram and arterial blood pressure. […] When the same compound is administered at a dosage rate of 2 milligrams per kilogram, the duration of protection is found to be greater than 2 hours.
In similar operations, dosages of 5 to 10 milligrams per kilogram are found to be required to obtain similar antiarrhythmic effects when the known antiarrhythmic agent, quinidine sulfate, is employed as a test compound.

## C=C(C)C[N+](C)(C)CCOc1c(Br)cc(N)cc1Br.[Cl-] [Example 1, [2-(4-amino-2,6-dibromophenoxy)ethyl]-dimethyl(2-methylallyl)ammonium chloride]
2 mg/kg
  duration of protection: greater than 2 hours
One mg/kg
  duration of antiarrhythmic effect: about 1 hour
  protection against the arrhythmias: excellent protection

— patent US3932664A, “Substituted phenoxyalkyl quaternary ammonium compounds as antiarrhythemic agents” (priority 1974, dated 1976)
